Results reported in patent US6720346B2, “Thiazole benzamide derivatives and pharmaceutical compositions for inhibiting cell proliferation” (Agouron Pharmaceuticals, Inc., priority 2001, dated 2004).
pIC50, pKi: −log10 of the molar value. Structures can show the parent of a compound that is named as a salt.

What was measured:
HCT-116 cell line = assay: Inhibition of cell growth, MTT tetrazolium salt assay; format: cell-based; details: Homo sapiens, HCT-116, 120 h; MTT, three to five days
Outline: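 HCT-116 cells in McCoy's 5A were dosed 4 h after plating with compounds in 0.5% DMSO and grown 3–5 days at 37 °C. Then 0.2 mg/mL MTT was added for 4 h and formazan absorbance read at 540 nm. IC50/IC90 came from semi-log plots against DMSO-only controls.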

CDK2/cyclin A = biological target: T1, CDK2/cyclin A (Homo sapiens, UniProt P24941); assay: Inhibition of CDK2/cyclin A retinoblastoma kinase activity (Ki; % inhibition); format: biochemical; details: apparent Ki, CDK2/cyclin A, Rb substrate
T1 construct: made in house; host or cells: CDK2: insect cells (baculovirus); cyclin A: E. coli
Outline: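 Radiometric filter assay of CDK2/proteolyzed cyclin A (baculovirus-expressed human CDK2, 10 or 19 nM) phosphorylating an Rb fragment with 25 μM [³²P/³³P]ATP in pH 7.4 HEPES, 2% DMSO, at 30 °C for 60 or 75 min under initial-rate conditions. Library compounds screened at 30 nM for % inhibition; apparent Ki from concentration series fit to competitive or tight-binding inhibition equations.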

human CDK4/cyclin D3 = biological target: T2, human CDK4/cyclin D3 (Homo sapiens, UniProt P11802); assay: Inhibition of CDK4/cyclin D retinoblastoma kinase activity (Ki; % inhibition); format: biochemical; details: apparent Ki, CDK4/cyclin D3, Rb substrate
T2 construct: made in house; host or cells: insect cells co-infected with baculovirus vectors
Outline: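 Insect-cell-expressed CDK4 with truncated cyclin D3 (1-264), 5 nM, phosphorylating His-tagged Rb fragment (386-928) with 25 μM [32/33P]ATP at pH 7.4, 30 °C, 20 min (60 min for tight binders). Filter capture, phosphorimager read; % inhibition at 30 nM compound, Ki from competitive or tight-binding fits.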

[1] = biological target: T3, human CDK1 (cdc2)/cyclin B (Homo sapiens, UniProt P06493); assay: Inhibition of CDK1 (cdc2)/cyclin B histone H1 kinase activity; format: biochemical; details: histone H1 substrate
T3 construct: purchased New England Biolabs (Beverly, Mass.)
Method: Cyclin-dependent kinase activity was measured by quantifying the enzyme-catalyzed, time-dependent incorporation of radioactive phosphate from [^32P]ATP or [^33P]ATP into a protein substrate. Unless noted otherwise, assays were performed in 96-well plates in a total volume of 50 μL, in the presence of 10 mM HEPES (N-[2-hydroxyethyl]piperazine-N′-[2-ethanesulfonic acid]) (pH 7.4), 10 mM MgCl2, 25 μM adenosine triphosphate (ATP), 1 mg/mL ovalbumin, 5 μg/mL leupeptin, 1 mM dithiothreitol, 10 mM β-glycerophosphate, 0.1 mM sodium vanadate, 1 mM sodium fluoride, 2.5 mM ethylene glycol-bis(β-aminoethyl ether)-N,N,N′N′-tetraacetic acid (EGTA), 2% (v/v) dimethylsulfoxide, and 0.03-0.4 μCi [^32/33P]ATP per reaction. Reactions were initiated with enzyme, incubated at 30° C., and terminated after 20 minutes by the addition of ethylenediaminetetraacetic acid (EDTA) to 250 mM. The phosphorylated substrate was then captured on a nitrocellulose or phosphocellulose membrane using a 96-well filtration manifold, and unincorporated radioactivity was removed by repeated washing with 0.85% phosphoric acid. Radioactivity was quantified by exposing the dried membranes to a phosphorimager.
Compounds from combinatorial libraries were screened from 96-well plates for % inhibition of CDK activity at 30 nM theoretical compound concentration. Inhibition was measured relative to control wells that contained all reaction components including 2% (v/v) DMSO but no compound, after subtraction of background radioactivity measured in the absence of enzyme. Apparent Ki values of discrete compounds were measured by assaying enzyme activity in the presence of different inhibitor compound concentrations and subtracting the background radioactivity measured in the absence of enzyme. The kinetic parameters (kcat, Km for ATP) were measured for each enzyme under the usual assay conditions by determining the dependence of initial rates on ATP concentration. Inhibition data were fit to an equation for competitive inhibition using Kaleidagraph (Synergy Software), or were fit to an equation for competitive tight-binding inhibition using the software KineTic (BioKin, Ltd.).
The complex of human CDK1 (cdc2) and cyclin B was purchased from New England Biolabs (Beverly, Mass.). Alternatively, a CDK1/glutathione-S-transferase-cyclin B1 complex was purified using glutathione affinity chromatography from insect cells that had been co-infected with the corresponding baculovirus expression vectors. The assay was executed as described above at 30° C. using 2.5 units of cdc2/cyclin B, 10 μg Histone H1 protein, and 0.1-0.3 μCi [^32/33P]ATP per assay. Phosphorylated histone substrate was captured by microfiltration on a phosphocellulose P81 membrane and quantified using a phosphorimager as described above. Ki values were measured using the described curve-fitting programs.

T2 sequence (P11802 whole entry): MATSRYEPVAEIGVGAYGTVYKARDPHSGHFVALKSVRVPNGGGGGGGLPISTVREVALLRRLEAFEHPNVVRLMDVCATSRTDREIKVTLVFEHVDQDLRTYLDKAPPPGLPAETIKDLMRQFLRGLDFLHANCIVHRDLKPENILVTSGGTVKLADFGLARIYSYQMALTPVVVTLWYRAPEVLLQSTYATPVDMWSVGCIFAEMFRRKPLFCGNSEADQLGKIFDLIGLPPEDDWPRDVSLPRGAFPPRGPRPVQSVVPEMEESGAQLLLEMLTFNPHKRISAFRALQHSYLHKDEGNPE
T2 sequence (P30281 1-264 partner limits assumed): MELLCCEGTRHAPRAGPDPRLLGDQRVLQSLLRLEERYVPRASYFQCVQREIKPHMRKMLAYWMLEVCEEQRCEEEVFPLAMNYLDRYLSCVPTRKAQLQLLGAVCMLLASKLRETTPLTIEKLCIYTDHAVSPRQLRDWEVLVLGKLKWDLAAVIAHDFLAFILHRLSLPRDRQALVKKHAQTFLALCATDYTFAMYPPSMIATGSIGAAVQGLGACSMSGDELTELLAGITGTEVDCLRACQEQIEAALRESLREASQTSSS
T3 sequence (P06493 whole entry): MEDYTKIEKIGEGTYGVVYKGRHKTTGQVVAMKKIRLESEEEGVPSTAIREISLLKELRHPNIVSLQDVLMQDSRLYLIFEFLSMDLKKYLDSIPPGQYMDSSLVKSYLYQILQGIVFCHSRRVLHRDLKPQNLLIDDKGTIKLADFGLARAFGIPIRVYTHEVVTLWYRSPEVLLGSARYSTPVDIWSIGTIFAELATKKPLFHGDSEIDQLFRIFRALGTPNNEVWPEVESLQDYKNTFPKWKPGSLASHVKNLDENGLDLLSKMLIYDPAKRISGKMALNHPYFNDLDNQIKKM
T3 sequence (P14635 whole entry partner): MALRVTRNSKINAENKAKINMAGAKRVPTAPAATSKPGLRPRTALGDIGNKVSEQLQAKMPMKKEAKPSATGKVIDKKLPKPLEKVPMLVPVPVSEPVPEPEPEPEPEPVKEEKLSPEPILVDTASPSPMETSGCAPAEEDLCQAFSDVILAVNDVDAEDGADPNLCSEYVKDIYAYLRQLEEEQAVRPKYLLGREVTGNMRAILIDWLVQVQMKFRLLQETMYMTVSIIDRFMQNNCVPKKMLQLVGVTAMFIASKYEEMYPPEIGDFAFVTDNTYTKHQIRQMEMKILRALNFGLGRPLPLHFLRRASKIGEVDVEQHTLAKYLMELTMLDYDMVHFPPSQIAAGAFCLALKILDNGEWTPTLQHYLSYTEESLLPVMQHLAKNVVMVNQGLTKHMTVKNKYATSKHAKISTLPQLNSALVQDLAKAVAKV

In the case of `CN(C)CC(C)(C)NC(=O)c1ccc(Nc2nc(N)c(C(=O)c3c(F)cccc3F)s2)cc1` (as salt: hydrochloride) [Example A61, 4-[4-Amino-5-(2,6-difluoro-benzoyl)-thiazol-2-ylamino]-N-(2-dimethylamino-1,1-dimethyl-ethyl)-benzamide Dihydrochloride], the melting point was 275 to 290 °C (dec.).
With `C[C@H](CNC(=O)c1ccc(Nc2nc(N)c(C(=O)c3c(F)cccc3F)s2)cc1)N(C)C` [Example A44, 4-[4-Amino-5-(2,6-difluoro-benzoyl)-thiazol-2-ylamino]-N-(2R-dimethylamino-propyl)-benzamide] the pIC50 (HCT-116 cell line) was 6.89, the pKi (CDK2/cyclin A) was 6.92 and the pKi (human CDK4/cyclin D3) was 8.00. It also gave a pKi [1] of 7.14.
